# Data taken from ChEMBL document CHEMBL3400059, “Synthesis and structure-activity relationships of a series of 4-methoxy-3-(piperidin-4-yl)oxy benzamides as novel inhibitors of the presynaptic choline transporter” (Bioorg Med Chem Lett, 2015).
# pIC50: −log10 of the molar value. Calls of active or inactive are those of the source. The rule behind the calls is not given here.
# What was measured:
# [1] = biological target: T1, High affinity choline transporter 1 (Homo sapiens, UniProt Q9GZV3, L531A/V532A); test: Inhibition of human CHT […] mutant expressed in HEK293 cells by membrane depolarization assay; format: cell-based
# [2] = system: T2, High affinity choline transporter 1 (Homo sapiens), Q9GZV3 [L531A,V532A]; test: Inhibition of human CHT […] mutant expressed in HEK293 cells assessed as remaining transporter activity at 5 uM in presence of 100 nM [3H]choline by [3H]choline uptake assay; format: cell-based
# T2 sequence (whole entry): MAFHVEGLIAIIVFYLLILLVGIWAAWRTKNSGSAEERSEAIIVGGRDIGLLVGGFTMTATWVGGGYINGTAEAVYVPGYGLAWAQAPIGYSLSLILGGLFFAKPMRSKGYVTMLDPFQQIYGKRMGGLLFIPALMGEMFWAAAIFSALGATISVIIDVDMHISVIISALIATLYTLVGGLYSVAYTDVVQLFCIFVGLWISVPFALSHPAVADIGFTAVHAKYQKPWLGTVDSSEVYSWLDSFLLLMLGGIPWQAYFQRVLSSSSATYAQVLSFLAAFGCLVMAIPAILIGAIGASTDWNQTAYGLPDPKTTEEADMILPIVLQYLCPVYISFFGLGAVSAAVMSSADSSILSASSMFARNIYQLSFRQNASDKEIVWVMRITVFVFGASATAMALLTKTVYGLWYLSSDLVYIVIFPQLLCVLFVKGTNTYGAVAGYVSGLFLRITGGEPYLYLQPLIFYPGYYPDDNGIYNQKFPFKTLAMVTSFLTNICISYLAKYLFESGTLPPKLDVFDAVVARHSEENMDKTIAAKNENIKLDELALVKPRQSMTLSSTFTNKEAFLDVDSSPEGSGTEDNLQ
# [3] = biological target: T1, High affinity choline transporter 1; test: Inhibition of human CHT […] mutant expressed in HEK293 cells assessed as remaining transporter activity in presence of 100 nM [3H]choline by [3H]choline uptake assay; format: cell-based
# [4] = system: T2, High affinity choline transporter 1 (Homo sapiens), Q9GZV3 [L531A,V532A]; test: Inhibition of human CHT […] mutant expressed in HEK293 cells assessed as remaining transporter activity at 5 uM in presence of 10 uM [3H]choline by [3H]choline uptake assay; format: cell-based
# [5] = biological target: T1, High affinity choline transporter 1; test: Inhibition of human CHT […] mutant expressed in HEK293 cells assessed as remaining transporter activity in presence of 10 uM [3H]choline by [3H]choline uptake assay; format: cell-based
# [6] = Hepatic clearance in mouse liver microsomes; format: ADME
# [7] = biological target: Cytochrome P450 3A4 (Homo sapiens, UniProt P08684); test: Inhibition of human CYP3A4; format: ADME
# [8] = system: Brain; test: Drug level in mouse brain at 1 mg/kg, ip administered as cassette dosing; format: ADME, organism-based; parameters: dose 1 mg/kg, route intraperitoneal; details: in vivo
# [9] = Ratio of drug level in brain to plasma in mouse at 1 mg/kg, ip administered as cassette dosing; format: ADME, organism-based; parameters: dose 1 mg/kg, route intraperitoneal
# [10] = biological target: Cytochrome P450 2D6 (Homo sapiens, UniProt P10635); test: Inhibition of human CYP2D6; format: ADME
# [11] = system: Plasma; test: Fraction unbound in mouse plasma by equilibrium dialysis method; format: ADME, cell-free
# [12] = biological target: Cytochrome P450 2C9 (Homo sapiens, UniProt P11712); test: Inhibition of human CYP2C9; format: ADME
# [13] = biological target: T3, Cytochrome P450 1A2 (Homo sapiens, UniProt P05177); test: Inhibition of human CYP1A2; format: ADME
# T3 sequence (P05177 whole entry): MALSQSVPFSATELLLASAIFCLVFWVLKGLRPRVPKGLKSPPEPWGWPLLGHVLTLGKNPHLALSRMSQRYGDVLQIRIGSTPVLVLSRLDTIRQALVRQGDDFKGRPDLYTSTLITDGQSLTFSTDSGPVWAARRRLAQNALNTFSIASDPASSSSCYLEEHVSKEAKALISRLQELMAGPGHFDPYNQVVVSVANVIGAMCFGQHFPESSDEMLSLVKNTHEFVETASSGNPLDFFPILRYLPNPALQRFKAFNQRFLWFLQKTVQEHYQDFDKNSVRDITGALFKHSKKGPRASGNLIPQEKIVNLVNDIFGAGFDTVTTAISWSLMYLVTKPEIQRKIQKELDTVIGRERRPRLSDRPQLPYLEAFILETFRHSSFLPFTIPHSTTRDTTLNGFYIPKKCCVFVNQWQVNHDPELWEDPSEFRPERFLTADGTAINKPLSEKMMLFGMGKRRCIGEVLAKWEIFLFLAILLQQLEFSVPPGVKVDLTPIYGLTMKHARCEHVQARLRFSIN
# [14] = biological target: Sodium-dependent dopamine transporter (Homo sapiens) (UniProt Q01959); test: Inhibition of DAT (unknown origin)
# Sequence of Sodium-dependent dopamine transporter (Homo sapiens) (Q01959 whole entry): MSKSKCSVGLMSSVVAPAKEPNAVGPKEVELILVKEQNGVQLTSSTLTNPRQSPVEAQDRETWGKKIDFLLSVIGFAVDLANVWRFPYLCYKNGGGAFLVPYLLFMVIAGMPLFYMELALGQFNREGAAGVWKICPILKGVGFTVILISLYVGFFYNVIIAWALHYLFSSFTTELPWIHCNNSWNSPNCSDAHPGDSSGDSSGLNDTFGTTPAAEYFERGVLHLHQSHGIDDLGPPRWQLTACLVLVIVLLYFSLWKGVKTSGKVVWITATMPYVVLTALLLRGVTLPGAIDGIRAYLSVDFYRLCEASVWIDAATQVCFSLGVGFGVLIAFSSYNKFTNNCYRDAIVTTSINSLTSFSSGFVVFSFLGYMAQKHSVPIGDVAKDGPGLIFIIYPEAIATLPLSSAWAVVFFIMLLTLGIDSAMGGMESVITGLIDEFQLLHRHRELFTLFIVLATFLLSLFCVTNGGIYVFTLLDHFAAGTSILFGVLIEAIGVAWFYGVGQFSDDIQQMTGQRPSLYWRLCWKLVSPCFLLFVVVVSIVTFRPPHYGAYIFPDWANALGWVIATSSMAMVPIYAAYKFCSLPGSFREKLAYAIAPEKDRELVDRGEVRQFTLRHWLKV
# Sequence of Cytochrome P450 3A4 (P08684 whole entry): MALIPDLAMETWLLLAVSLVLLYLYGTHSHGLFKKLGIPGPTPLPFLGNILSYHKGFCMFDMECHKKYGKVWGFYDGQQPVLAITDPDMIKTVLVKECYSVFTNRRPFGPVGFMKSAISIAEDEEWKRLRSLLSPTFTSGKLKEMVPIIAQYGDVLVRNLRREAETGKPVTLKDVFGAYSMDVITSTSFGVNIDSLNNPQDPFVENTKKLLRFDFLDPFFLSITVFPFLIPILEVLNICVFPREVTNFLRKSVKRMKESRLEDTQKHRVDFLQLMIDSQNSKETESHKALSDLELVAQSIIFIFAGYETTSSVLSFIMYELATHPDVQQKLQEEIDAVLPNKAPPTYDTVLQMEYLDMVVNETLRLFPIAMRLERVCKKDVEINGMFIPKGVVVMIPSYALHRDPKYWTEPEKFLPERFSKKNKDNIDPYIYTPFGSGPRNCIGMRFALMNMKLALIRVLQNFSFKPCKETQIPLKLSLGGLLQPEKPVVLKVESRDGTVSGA
# Sequence of Cytochrome P450 2D6 (P10635 whole entry): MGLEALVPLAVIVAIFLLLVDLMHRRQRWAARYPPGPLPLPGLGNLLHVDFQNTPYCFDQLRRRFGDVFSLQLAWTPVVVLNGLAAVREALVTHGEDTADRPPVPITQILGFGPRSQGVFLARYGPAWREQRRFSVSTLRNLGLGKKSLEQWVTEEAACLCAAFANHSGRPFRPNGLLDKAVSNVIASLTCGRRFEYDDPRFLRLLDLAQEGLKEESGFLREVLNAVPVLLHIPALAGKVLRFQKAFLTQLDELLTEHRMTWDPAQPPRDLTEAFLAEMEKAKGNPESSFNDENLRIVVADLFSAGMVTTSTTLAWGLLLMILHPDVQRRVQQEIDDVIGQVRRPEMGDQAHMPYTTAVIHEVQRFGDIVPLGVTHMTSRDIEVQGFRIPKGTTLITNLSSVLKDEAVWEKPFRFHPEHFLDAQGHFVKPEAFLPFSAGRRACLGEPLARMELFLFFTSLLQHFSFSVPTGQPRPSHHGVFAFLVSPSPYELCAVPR
# Sequence of Cytochrome P450 2C9 (P11712 whole entry): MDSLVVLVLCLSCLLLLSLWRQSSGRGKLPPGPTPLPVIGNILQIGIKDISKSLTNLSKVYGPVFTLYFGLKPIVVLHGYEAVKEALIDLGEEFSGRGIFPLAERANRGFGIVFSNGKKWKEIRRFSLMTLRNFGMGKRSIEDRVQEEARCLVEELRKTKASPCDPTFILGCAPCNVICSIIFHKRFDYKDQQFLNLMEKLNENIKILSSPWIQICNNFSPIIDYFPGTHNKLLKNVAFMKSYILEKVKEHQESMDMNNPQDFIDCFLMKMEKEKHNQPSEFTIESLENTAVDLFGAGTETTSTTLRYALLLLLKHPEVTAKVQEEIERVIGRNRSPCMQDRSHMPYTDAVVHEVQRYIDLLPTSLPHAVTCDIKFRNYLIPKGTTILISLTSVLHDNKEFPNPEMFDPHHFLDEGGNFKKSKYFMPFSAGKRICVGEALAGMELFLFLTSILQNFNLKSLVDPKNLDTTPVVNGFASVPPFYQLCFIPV
Structure (SMILES),Activity [2],pIC50 [3],Activity [4],pIC50 [5],also measured
CC(NC(=O)c1ccc(OC2CCN(Cc3ccccn3)CC2)cc1)c1ccccc1 (centres undefined),–,–,–,–,pIC50 [1]: 5.90
COc1ccc(C(=O)NCc2nc(C)c(C)s2)cc1OC1CCN(C(C)C)CC1,–,–,–,–,pIC50 [1]: 6.12
COc1ccc(C(=O)NCc2nc(C)cs2)cc1OC1CCN(C(C)C)CC1,42.2%,5.46,13.2%,5.99,–
COc1ccc(C(=O)NCc2csc(C)n2)cc1OC1CCN(C(C)C)CC1,42.6%,5.31,18.9%,5.79,CLhep predicted [6]: 82.4 mL/min/kg; pIC50 [7]: < 4.52; Drug uptake [8]: 1.5 ng/g; BPR [9]: 0.19; pIC50 [10]: < 4.52; Fu [11]: 0.39; pIC50 [12]: < 4.52; pIC50 [13]: 4.99
COc1ccc(C(=O)NCCC2=CCCCC2)cc1OC1CCN(C(C)C)CC1,–,–,–,–,pIC50 [1]: 5.50
CCn1cc(CNC(=O)c2ccc(OC)c(OC3CCN(C(C)C)CC3)c2)cn1,41.8%,5.03,24.8%,5.73,–
CCn1nc(C)c(CNC(=O)c2ccc(OC)c(OC3CCN(C(C)C)CC3)c2)c1C,45.8%,5.80,15.9%,6.04,CLhep predicted [6]: 22.4 mL/min/kg; pIC50 [7]: < 4.52; Drug uptake ([8]; BLD = below limit of detection): BLD; BPR [9]: < 0.05; pIC50 [10]: 5.17; Fu [11]: 0.57; pIC50 [12]: < 4.52; pIC50 [13]: < 4.52
COc1ccc(C(=O)NCc2cc(C(C)C)no2)cc1OC1CCNCC1,51.5%,–,18.6%,–,–
COc1ccc(C(=O)NC(C)Cc2ccccn2)cc1OC1CCN(C(C)C)CC1 (centres undefined),46.3%,5.39,20.4%,5.76,CLhep predicted [6]: 48.8 mL/min/kg; pIC50 [7]: 4.55; Drug uptake [8]: 4 ng/g; BPR [9]: 1.1; pIC50 [10]: 4.57; Fu [11]: 0.35; pIC50 [12]: < 4.52; pIC50 [13]: < 4.52
CCc1cc(CNC(=O)c2ccc(OC)c(OC3CCN(C(C)C)CC3)c2)on1,–,–,–,–,pIC50 [1]: 6.22
COc1ccc(C(=O)NCc2cc(C(C)C)no2)cc1OCCN1CCCC1,50.1%,–,29.8%,–,–
COc1ccc(C(=O)NCc2cc(C(C)C)no2)cc1OCC(C)C,99.8%,–,89.4%,–,–
COc1ccc(C(=O)NCc2cc(C(C)C)no2)cc1OC1CCCC1,82%,–,81.3%,–,–
COc1ccc(C(=O)NCc2cc(C(C)C)no2)cc1OC1CCN(C(C)C)CC1,10.9%,–,-2.8%,–,CLhep predicted [6]: 80.7 mL/min/kg; pIC50 [7]: < 4.52; Drug uptake ([8]; BLD = below limit of detection): BLD; BPR [9]: < 0.06; pIC50 [10]: < 4.52; Fu [11]: 0.57; pIC50 [12]: < 4.52; pIC50 [13]: < 4.52
COc1ccc(C(=O)NCc2cc(C(C)C)no2)cc1O,86.2%,–,99.4%,–,–
COc1ccc(C(=O)NCc2cc(C)n(C)n2)cc1OC1CCN(C(C)C)CC1,49.9%,5.09,29.4%,5.60,–
COc1ccc(C(=O)NCc2cnn(C)c2)cc1OC1CCN(C(C)C)CC1,64.8%,–,47.5%,–,–
COc1ccc(C(=O)NCc2cc(C(C)C)no2)cc1OC(C)CN(C)C (centres undefined),59.7%,–,28.2%,–,–
COc1ccc(C(=O)NCc2cc(C(C)C)no2)cc1OC1CCCCC1,83.2%,–,87.6%,–,–
COc1ccc(C(=O)NCCN2CCCC2)cc1OC1CCN(C(C)C)CC1,37.4%,5.67,9.9%,5.81,–
COc1ccc(C(=O)NCc2cc(C(C)C)no2)cc1OCCN1CCOCC1,36.7%,5.21,32.1%,5.75,–
COc1ccc(C(=O)NC(C)Cc2cnccn2)cc1OC1CCN(C(C)C)CC1 (centres undefined),–,–,–,–,pIC50 [1]: 5.35
COc1ccc(C(=O)NCc2cc(C(C)C)no2)cc1OC1CCCN(C)C1 (centres undefined),51.7%,5.90,18.4%,5.34,–
CCCN1CCC(Oc2cccc(C(=O)NCCc3ccccc3)c2)CC1,–,–,–,–,pIC50 [1]: 5.37
COc1ccc(C(=O)NCc2ccc(C)s2)cc1OC1CCN(C(C)C)CC1,76.4%,–,36.7%,–,–
COc1ccc(C(=O)NCc2ccncn2)cc1OC1CCN(C(C)C)CC1,87.7%,–,71.8%,–,–
COc1ccc(C(=O)NCc2cc(C(C)C)no2)cc1OC1CCN(C)CC1,3.1%,–,-0.9%,–,CLhep predicted [6]: 29.4 mL/min/kg; inhibition [14]: inactive; Drug uptake [8]: 3.3 ng/g; BPR [9]: 0.28; pIC50 [10]: < 4.52; Fu [11]: 0.48; pIC50 [12]: < 4.52; pIC50 [13]: < 4.52
COc1ccc(C(=O)NCc2cc(C(C)C)no2)cc1OCCN1CCCCC1,38.3%,6.12,-0.2%,6.28,CLhep predicted [6]: 58.4 mL/min/kg; pIC50 [7]: < 4.52; Drug uptake [8]: 1.8 ng/g; BPR [9]: 0.07; pIC50 [10]: < 4.52; Fu [11]: 0.71; pIC50 [12]: < 4.52; pIC50 [13]: < 4.52
COc1ccc(C(=O)NC2CCc3ccccc32)cc1OC1CCN(C(C)C)CC1 (centres undefined),–,–,–,–,pIC50 [1]: 5.47
